Some test systems named below: COLO 205 colon; HOP-92 NSCLC; LOX IMVI melanoma; M14 melanoma; NCI-H23 lung; OVCAR-4 ovarian; SK-MEL-28 melanoma; SK-OV-3 ovarian; SN12C renal; SW-620 colon; UACC-62 melanoma.
Common to all, as to assay: growth of human tumour cells (NCI), 48 h

“And” between values parts separate entries of the source, which are not always exact repeats. Equal entries are not always repeated.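 Exposure lasted 48 hours, with cells grown in 96-well plates and compounds tested at five concentrations. Here, GI50 denotes the concentration required for 50% inhibition of growth. TGI: concentration producing complete growth inhibition.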 Where only a bound is given, the exact number is not on record here.

For the molecule `CC1=CC[C@@]2(CO)[C@@H]([C@@H]1C)[C@H]1CC[C@@H]3[C@@]4(C)CC[C@H](O)C(C)(C)[C@@H]4CC[C@@]3(C)[C@]1(C)C[C@@H]2O`, the TGI with COLO 205 colon was 50.2 µM; in the experiment on HOP-92 NSCLC, 44 µM; in the experiment with LOX IMVI melanoma, 45.2 µM; in the experiment with M14 melanoma it was over 100 µM; in the experiment on NCI-H23 lung, 46.4 µM; in the experiment with OVCAR-4 ovarian, over 100 µM. In addition, the TGI with SK-MEL-28 melanoma is over 100 µM; with SK-OV-3 ovarian it was 39.4 µM; in the experiment with SN12C renal, over 100 µM; in the experiment with SW-620 colon, over 100 µM; in the experiment with UACC-62 melanoma, over 100 µM.

Consider `O=c1oc2ccccc2c(O)c1/C=N/C(=S)NCCc1ccccc1`, for which the TGI was over 100 µM in the experiment on COLO 205 colon; over 74.7 µM in the experiment on HOP-92 NSCLC; over 100 µM in the experiment on LOX IMVI melanoma; over 100 µM with M14 melanoma; over 88 µM in the experiment with NCI-H23 lung; over 100 µM in the experiment on OVCAR-4 ovarian. The TGI is over 100 µM in the experiment with SK-MEL-28 melanoma; over 63.8 µM in the experiment on SK-OV-3 ovarian; over 100 µM with SN12C renal; over 100 µM with SW-620 colon; 99.4 µM in the experiment on UACC-62 melanoma.

As for `Cc1oc2c(Cl)cc(O)c(Cl)c2c2cccc1-2`, the TGI in the experiment with COLO 205 colon was over 100 µM; in the experiment on HOP-92 NSCLC it was 52.1 µM; in the experiment on LOX IMVI melanoma, 36.1 µM; with M14 melanoma it was over 100 µM; in the experiment on NCI-H23 lung it was 44.1 µM; in the experiment with OVCAR-4 ovarian, 36.9 µM. Further, the TGI with SK-MEL-28 melanoma is 57.5 µM; in the experiment on SK-OV-3 ovarian it was over 100 µM; in the experiment on SN12C renal, 80.7 µM; in the experiment with SW-620 colon, over 100 µM; with UACC-62 melanoma, over 100 µM.

Take `COc1cc(OC)c2nc(C)c3c(c2c1)NCC3`: the TGI stood at 17.1 µM in the experiment with COLO 205 colon; 30.9 µM in the experiment on HOP-92 NSCLC; 15 µM in the experiment on LOX IMVI melanoma; 24.1 µM in the experiment with M14 melanoma; 19.9 µM with NCI-H23 lung; 15.6 µM with OVCAR-4 ovarian. Also, the TGI worked out at 28.5 µM with SK-MEL-28 melanoma; 49.6 µM with SK-OV-3 ovarian; 18.9 µM in the experiment with SN12C renal; 19.1 µM in the experiment on SW-620 colon; 22.4 µM in the experiment on UACC-62 melanoma.

As to `Cc1nc2c(=O)n(-c3ccccc3)c3ccccc3c2o1`, the TGI in the experiment with COLO 205 colon, in the experiment on HOP-92 NSCLC, in the experiment on LOX IMVI melanoma, with M14 melanoma, in the experiment on NCI-H23 lung and in the experiment with OVCAR-4 ovarian was over 100 µM each time. Moreover, the TGI with SK-MEL-28 melanoma, in the experiment on SK-OV-3 ovarian, in the experiment on SN12C renal, in the experiment with SW-620 colon and in the experiment with UACC-62 melanoma was over 100 µM throughout.

For the molecule `O=C1NC(=O)C2(CCCCCC2)N1`, the TGI in the experiment with COLO 205 colon, with HOP-92 NSCLC, in the experiment with LOX IMVI melanoma, in the experiment with M14 melanoma, in the experiment with NCI-H23 lung and in the experiment with OVCAR-4 ovarian was over 100 µM each time. Moreover, the TGI in the experiment with SK-MEL-28 melanoma, in the experiment with SK-OV-3 ovarian, in the experiment with SN12C renal, in the experiment on SW-620 colon and in the experiment on UACC-62 melanoma was over 100 µM throughout.

As for `COCCCNC(=O)C1=C(C)NC(C)=C(C(=O)NCCCOC)C1`, the TGI with COLO 205 colon, with HOP-92 NSCLC, in the experiment on LOX IMVI melanoma, in the experiment on M14 melanoma, in the experiment on NCI-H23 lung and in the experiment on OVCAR-4 ovarian was over 100 µM in each case. Moreover, the TGI in the experiment on SK-MEL-28 melanoma, in the experiment on SK-OV-3 ovarian, with SN12C renal, in the experiment with SW-620 colon and in the experiment on UACC-62 melanoma was over 100 µM each time.

In the case of `COc1ccc2[nH]cc([C@@H]3C4CCC(C4)[C@H]3NCc3cccc(CN[C@H]4C5CCC(C5)[C@@H]4c4c[nH]c5ccc(OC)cc45)c3)c2c1`, the GI50 in the experiment with COLO 205 colon is 0.206 µM; in the experiment on LOX IMVI melanoma, 0.184 µM; with M14 melanoma it was 0.423 µM; with SK-MEL-28 melanoma it was 1.67 µM and 1.68 µM; in the experiment on SK-OV-3 ovarian, 1.6 µM; with SW-620 colon it was 0.177 µM. The TGI was 1.2 µM and 0.427 µM in the experiment with COLO 205 colon; 2.6 µM and 2.59 µM in the experiment with HOP-92 NSCLC; 0.328 µM and 0.605 µM with LOX IMVI melanoma; 1.41 µM and 1.5 µM in the experiment with M14 melanoma; 3 µM and 2.93 µM with NCI-H23 lung; 2.77 µM and 2.75 µM with OVCAR-4 ovarian. Besides, the TGI with SK-MEL-28 melanoma is 3.05 µM and 3.07 µM; in the experiment with SK-OV-3 ovarian, 2.94 µM and 2.95 µM; in the experiment on SN12C renal, 3.1 µM and 2.93 µM; with SW-620 colon it was 0.333 µM and 0.627 µM; in the experiment with UACC-62 melanoma it was 3.19 µM.

Consider `Cc1nc(N/N=C/c2ccccc2Cl)[nH]c(=O)c1CCO`, for which the TGI was over 100 µM with COLO 205 colon; 57.3 µM in the experiment with HOP-92 NSCLC; over 100 µM in the experiment on LOX IMVI melanoma; over 100 µM in the experiment on M14 melanoma; over 100 µM with NCI-H23 lung; over 100 µM with OVCAR-4 ovarian. Besides, the TGI in the experiment with SK-MEL-28 melanoma was over 100 µM; with SK-OV-3 ovarian it was 43.4 µM; in the experiment on SN12C renal, over 100 µM; in the experiment with SW-620 colon it was over 100 µM; with UACC-62 melanoma it was over 100 µM.

Consider `CC(C)NC(=O)OCc1c(COC(=O)NC(C)C)c(-c2cc[n+](COC(=O)C(C)(C)C)cc2)n2c1CCC2`, for which the TGI in the experiment on COLO 205 colon, with HOP-92 NSCLC, in the experiment with LOX IMVI melanoma, with M14 melanoma, in the experiment on NCI-H23 lung and in the experiment on OVCAR-4 ovarian was over 100 µM throughout. Moreover, the TGI in the experiment on SK-MEL-28 melanoma, in the experiment on SK-OV-3 ovarian, in the experiment on SN12C renal, with SW-620 colon and in the experiment on UACC-62 melanoma was over 100 µM throughout.

For the molecule `CCOC(=O)[C@@]12C[C@](/C=C/OC)(O[Si](C)(C)C)[C@@]13c1cc(OC)c(OC)cc1CCN3C(=O)C2O` (some centres not stated), the TGI with COLO 205 colon, with HOP-92 NSCLC, in the experiment on LOX IMVI melanoma, in the experiment with M14 melanoma, in the experiment with NCI-H23 lung and with OVCAR-4 ovarian was over 100 µM in each case. In addition, the TGI with SK-MEL-28 melanoma, with SK-OV-3 ovarian, in the experiment with SN12C renal, in the experiment with SW-620 colon and with UACC-62 melanoma was over 100 µM throughout.

For the origin of these results see PubChem BioAssay (NCI).
